From PMC6273267 (Molecules, 2016)
Where two headings read alike, the source gives them in different places.

Key:
SH-SY5Y cells = assay: Neurocyte toxicity test in vitro (MTT method); assay type: cell-based; conditions: 40 μM, 48 h
Experimental: Thus, we used the methyl thiazolyl tetrazolium (MTT) method to perform a neurocyte (SH-SY5Y) toxicity test in vitro. […] However, cell viability was greatly influenced at 20 and 40 μM concentrations and the inhibition rates were more than 90%. […] However, compared with the cholinesterase activity at the nanomole level, this level of cytotoxicity is acceptable. […]
Figure 5 Inhibition for SH-SY5Y of compounds 4a–4c, 5a–5c, 6a–6b and curcumin at different concentrations.
The SH-SY5Y cell line was seeded on 96-well plates at a density of 1.0 × 10^4 cells/well. After overnight incubation, the cells were treated with various concentrations (0.1, 1, 20, and 40 μM) of graveoline derivatives for 48 h. Subsequently, 10 μL of 5 mg/mL MTT solution was added to each well and further incubated for 4 h at 37 °C. The solution was carefully removed, and each well was treated with dimethyl sulfoxide (DMSO) (200 μL for each well). The optical density of the wells was then read on the microplate reader at 490 nm. The parallel tests of all drug doses were performed in triplicate.

AChE (E.C. 3.1.1.7) [1] = target: T1, AChE (E.C. 3.1.1.7) (Electrophorus electricus, UniProt O42275); assay: biochemical; conditions: for Selectivity Index: Selectivity Index = IC50 (BuChE)/IC50 (AChE); for IC50: means ± SEM of three experiments, pH 8.0, 37 °C, 15 min incubation, read-out: AChE Inhibition (IC50)
T1 construct: purchased Sigma-Aldrich (St. Louis, MO, USA)
Experimental: (§1) The inhibitory activity of the synthesized graveoline analogs on cholinesterase in vitro was studied using the Ellman method.
(§2) Stock solutions of all graveoline analogs (10 mM) were prepared using DMSO and stored at −80 °C. Further dilutions to working concentrations were made with double-distilled deionized water. AChE (E.C. 3.1.1.7, obtained from electric eel), BuChE (E.C. 3.1.1.8, obtained from equine serum), 5,5′-dithiobis-(2-nitrobenzoic acid) (Ellman’s reagent, DTNB), acetylthiocholine chloride (ATC), butylthiocholine chloride, thioflavin T, and tarcine hydrochloride were purchased from Sigma-Aldrich (St. Louis, MO, USA). Aβ42 was purchased from Millipore (Billerica, MA, USA). 3-(4,5-Dimethylthiazol-2-yl)-2,5-diphenyltetrazolium bromide (MTT) was purchased formal Aladdin (Shanghai, China). The SH-SY5Y cell line was obtained from the Animal experimental center of Sun Yat-sen University.
(§3) The solutions of the enzyme were prepared to achieve 2.0 units/mL in 2 mL aliquots. The experiment system contained phosphate buffer, pH 8.0 (1 mL), 50 μL of 0.01 M substrate (ATC), 50 μL of 0.01 M DTNB, and 10 μL of enzyme. The substrate was added into the experiment system containing the DTNB, buffer, and enzyme with inhibitors after 15 min of incubation. […] Calculations were conducted according to the assay of Ellman et al.. The in vitro BuChE assay was performed using the method described above.

BuChE (E.C. 3.1.1.8) = target: T2, BuChE (E.C. 3.1.1.8) (Equus caballus, UniProt P81908); assay: biochemical; conditions: means ± SEM of three experiments; pH 8.0, 37 °C, 15 min incubation; read-out: BuChE Inhibition (IC50)
T2 construct: purchased Sigma-Aldrich (St. Louis, MO, USA); host or cells: equine serum
Experimental: as §1, §2, §3

AChE = target: T3, AChE (Electrophorus electricus, UniProt O42275); assay: Kinetic characterization of AChE inhibition (Lineweaver-Burk plot); assay type: biochemical, electric eel; conditions: lines intersect in the second quadrant
T3 construct: purchased Sigma-Aldrich (St. Louis, MO, USA)
Experimental: When the small-molecule ligand was combined with the AChE active center (CAS), the type of inhibition of the enzyme was classified as competitive inhibition; by contrast, when the small-molecule ligand was acted on the PAS, the enzymatic inhibition was classified as non-competitive inhibition. […] This conclusion was verified by subsequent molecular docking experiments.
Figure 2 Lineweaver-Burk plot for the inhibition of AChE by 5c.
The kinetic characterization of AChE was performed using the reported method. Three concentrations ([…]) of the substrate were mixed in 1 mL 0.1 M KH2PO4/K2HPO4 buffer (pH 8.0) containing 10 μL AChE, 50 μL DTNB, and 50 μL substrate. The test compound was added into the assay solution and was pre-incubated with the AChE at 37 °C for 15 min followed by addition of the substrate. The kinetic characterization of the AChE-catalyzed ATC hydrolysis was performed spectrometrically at 412 nm. A parallel control with no inhibitor in the mixture allowed adjusting activities to be measured at various times.

[2] = test system: AChE-induced Aβ42 aggregation; assay: Thioflavin T-based fluorometric assay of AChE-induced Aβ42 aggregation; assay type: biochemical; conditions: 5, 10, 20, 40 and 80 μM; 48 h at 37 °C; effect related to compound concentration
Experimental: To explore the combining effect of graveoline analogs on the AChE functional site PAS, compound 5c was chosen to study the inhibitory activity of AChE-induced Aβ aggregation using thioflavin T-based fluorometric assay. […] The inhibitory effect of 5c was related to the compound concentration. […]
Figure 4 Determination of 5c inhibition potency on AChE-induced amyloid-β (Aβ)42 aggregation.
The self-mediated Aβ42 aggregation was evaluated through the thioflavin-T fluorescence assay. A mixture of 230 μM Aβ42 peptide, 2.30 μM AChE (Aβ42/AChE molar ratio 100:1), and the indicated concentrations of compound 5c (5, 10, 20 ,40 and 80 μM) were added to the phosphate buffer (pH 7.40, 0.01 M). After co-incubated in 37 °C for 48 h, thioflavin-T (5 μM in 50 mM glycine-NaOH buffer, pH 8.00) was added. Fluorescence was monitored with excitation at 450 nm (λex) and 485 nm (λem) by the Spectrofluorimeter LS55. The fluorescence intensity values reached at the plateau (around 300 s) were recorded after subtracting the background fluorescence. The solutions containing Aβ42, and Aβ42 plus HuAChE was checked as control. Each experiment was run in triplicate.

AChE (E.C. 3.1.1.7) [3] = target: T1, AChE (E.C. 3.1.1.7); assay: biochemical; conditions: stated in the introduction, early efforts

T2 sequence (P81908 whole entry): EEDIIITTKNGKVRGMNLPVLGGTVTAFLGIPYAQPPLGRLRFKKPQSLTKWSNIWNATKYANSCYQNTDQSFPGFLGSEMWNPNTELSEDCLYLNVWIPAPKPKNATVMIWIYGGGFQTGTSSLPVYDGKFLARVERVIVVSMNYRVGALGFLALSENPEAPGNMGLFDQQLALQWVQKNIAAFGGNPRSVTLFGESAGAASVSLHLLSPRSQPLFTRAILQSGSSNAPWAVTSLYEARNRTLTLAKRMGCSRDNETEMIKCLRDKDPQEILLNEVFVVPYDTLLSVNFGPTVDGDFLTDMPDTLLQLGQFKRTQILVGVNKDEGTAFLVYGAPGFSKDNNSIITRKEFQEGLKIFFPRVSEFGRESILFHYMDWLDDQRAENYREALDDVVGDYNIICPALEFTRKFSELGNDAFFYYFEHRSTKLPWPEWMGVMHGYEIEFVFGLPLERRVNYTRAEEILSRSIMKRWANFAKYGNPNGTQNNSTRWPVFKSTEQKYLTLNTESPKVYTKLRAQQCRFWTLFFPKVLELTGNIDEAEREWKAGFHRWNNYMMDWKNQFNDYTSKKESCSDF
T1 sequence (O42275 24-633): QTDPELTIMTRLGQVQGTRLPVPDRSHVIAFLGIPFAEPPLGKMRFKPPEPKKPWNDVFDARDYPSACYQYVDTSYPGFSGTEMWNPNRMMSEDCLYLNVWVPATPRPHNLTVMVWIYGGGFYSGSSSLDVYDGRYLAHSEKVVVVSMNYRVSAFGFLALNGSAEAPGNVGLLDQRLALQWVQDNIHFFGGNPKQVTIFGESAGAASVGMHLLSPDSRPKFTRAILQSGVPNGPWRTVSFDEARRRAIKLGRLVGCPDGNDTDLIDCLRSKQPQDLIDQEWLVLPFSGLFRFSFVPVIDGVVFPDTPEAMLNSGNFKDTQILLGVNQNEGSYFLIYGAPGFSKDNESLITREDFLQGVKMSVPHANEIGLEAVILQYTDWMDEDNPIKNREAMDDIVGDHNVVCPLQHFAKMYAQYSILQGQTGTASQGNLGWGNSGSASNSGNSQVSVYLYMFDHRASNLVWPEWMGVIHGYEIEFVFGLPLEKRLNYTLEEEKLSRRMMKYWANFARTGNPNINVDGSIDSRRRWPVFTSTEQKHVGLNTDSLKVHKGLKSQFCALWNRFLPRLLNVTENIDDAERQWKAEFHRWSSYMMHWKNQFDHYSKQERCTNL
T3 sequence (O42275 24-633): as above

Row | Structure (SMILES) | neurocyte inhibition rate (SH-SY5Y cells) [%] | Selectivity Index (AChE (E.C. 3.1.1.7) [1]) | IC50 (AChE (E.C. 3.1.1.7) [1]) [µM] | IC50 (BuChE (E.C. 3.1.1.8)) [µM] | type of inhibition of AChE (AChE) | inhibition of AChE-induced Aβ42 aggregation [2] | IC50 (AChE (E.C. 3.1.1.7) [3]) [µM]
1 | COc1cc(/C=C/C(=O)CC(=O)/C=C/c2ccc(O)c(OC)c2)ccc1O [curcumin] | 57.3 | – | – | – | – | – | –
2 | Cn1c(-c2ccc(CNCCCCN3CCCC3)cc2)cc(=O)c2ccccc21 [Compound 6b, 1-Methyl-2-(4-((4-(pyrrolidin-1-yl)butylamino)methyl)phenyl)quinolin-4(1H)-one] | – | 193 | 0.0126 ± 0.00057 | 2.43 ± 0.049 | – | – | –
3 | Cn1c(-c2ccc(CNCCN3CCCCC3)cc2)cc(=O)c2ccccc21 [Compound 4c, 1-Methyl-2-(4-((2-(piperidin-1-yl)ethylamino)methyl)phenyl)quinolin-4(1H)-one] | – | 160 | 0.00963 ± 0.00076 | 1.54 ± 0.029 | – | – | –
4 | CN(C)CCNCc1ccc(-c2cc(=O)c3ccccc3n2C)cc1 [Compound 4a, 2-(4-((2-(Dimethylamino)ethylamino)methyl)phenyl)-1-methylquinolin-4(1H)-one] | – | 45 | 0.0785 ± 0.00176 | 3.52 ± 0.046 | – | – | –
5 | Cn1c(-c2ccc(CNCCCN3CCCCC3)cc2)cc(=O)c2ccccc21 [Compound 5c, 1-Methyl-2-(4-((3-(piperidin-1-yl)propylamino)methyl)phenyl)quinolin-4(1H)-one] | – | 486 | 0.00236 ± 0.00024 | 1.15 ± 0.031 | mixed inhibition | significantly inhibit | –
6 | Cc1ccc(-c2cc(=O)c3ccccc3n2C)cc1 [Compound 2, 1-Methyl-2-p-tolylquinolin-4(1H)-one] | – | 3 | 3.65 ± 0.038 | 9.306 ± 0.076 | – | – | 3.65
7 | CN(C)CCCNCc1ccc(-c2cc(=O)c3ccccc3n2C)cc1 [Compound 5a, 2-(4-((3-(Dimethylamino)propylamino)methyl)phenyl)-1-methylquinolin-4(1H)-one] | – | 80 | 0.0334 ± 0.00078 | 2.68 ± 0.032 | – | – | –
8 | CN(C)CCCCNCc1ccc(-c2cc(=O)c3ccccc3n2C)cc1 [Compound 6a, 2-(4-((4-(Dimethylamino)butylamino)methyl)phenyl)-1-methylquinolin-4(1H)-one] | – | 103 | 0.0355 ± 0.00096 | 3.67 ± 0.039 | – | – | –
9 | Cn1c(-c2ccc(CNCCCN3CCCC3)cc2)cc(=O)c2ccccc21 [Compound 5b, 1-Methyl-2-(4-((3-(pyrrolidin-1-yl)propylamino)methyl)phenyl)quinolin-4(1H)-one] | – | 291 | 0.00647 ± 0.00015 | 1.89 ± 0.054 | – | – | –
10 | Cn1c(-c2ccc(CNCCN3CCCC3)cc2)cc(=O)c2ccccc21 [Compound 4b, 1-Methyl-2-(4-((2-(pyrrolidin-1-yl)ethylamino)methyl)phenyl)quinolin-4(1H)-one] | – | – | 0.0102 ± 0.00133 | 2.47 ± 0.085 | – | – | –
